Measurements from patent publication US20190226949A1, “IRIDIUM COMPLEXES FOR CELLULAR IMAGING” (UNIVERSITY OF SOUTH AUSTRALIA, priority 2016, published 2019).
Where “and” joins values, the source holds several entries; their conditions need not be identical. Equal values may be shown once.

Assays:
[1] = Lipophilicity by shake-flask method (7.4-buffered PBS / n-octanol); type: physicochemical; details: pH 7.4; 7.4-buffered PBS solution and n-octanol; read-out: logD7.4, distribution coefficient
Method: The lipophilicity of the iridium complexes was measured by the shake-flask method using 7.4-buffered PBS and n-octanol as solvents (Table 2). The values range between 1.49 and 2.68 are typical for cyclometalated iridium complexes that have not been bioconjugated. […] In general, neutral complexes have log D7.4 values above 2.00 and there is an increased in lipophilicity of extending the tetrazolato ligand with the addition of a phenyl spacer in [Ir(ppy)2(TzPyPhCN)], or by extending the conjugation on passing from pyridine to quinoline or isoquinoline for [Ir(ppy)2(TzQn)] and [Ir(ppy)2(TziQn)]. Methylation in all cases reduces lipophilicity to log D7.4 values […], with the same trend within the family of methylated complexes as previously observed for the neutral ones.

[2] = tested on: H9c2 rat cardiomyoblast cells; test: Staining and co-staining of live H9c2 cells, confocal and two-photon microscopy; type: cell-based; details: for cellular localisation (co-staining): live H9c2, 20 μM, 30 minutes; for emission profile from cells: live H9c2, one-photon or two-photon excitation
Method: Live H9c2 rat cardiomyoblasts were incubated with the iridium complexes for 30 minutes. Complexes were made to a final concentration of 20 μM in the cell culture medium with DMSO concentration <0.2%. Under these conditions, the luminescence from the iridium complexes within the cells was detected via confocal microscopy under single-photon excitation (403 nm) or two-photon excitation (810-840 nm).
To determine the localisation of the iridium complexes, co-staining experiments were carried out with the use of ER-Tracker™ Red (endoplasmic reticulum), LysoTracker® Red DND-99 (acidic compartments), MitoTracker® Red (mitochondria), BODIPY® 500/510 C1, C12(fatty acid) or β-BODIPY® FL HPC (phospholipids). […] This difference was also in agreement with the trend of the quantum yield data illustrated before and detection of internalised complex by ICP-MS.
H9c2 rat cardiomyoblast cell line was a kind gift from Professor Janna Morrison (University of South Australia). The H9c2 cells were maintained in high-glucose (4500 mg/L) DMEM medium (Sigma-Aldrich, USA) containing 10% fetal bovine serum (FBS; In Vitro Technologies, USA) and 2 mM L-glutamine (Sigma-Aldrich, USA) at 37° C. and 5% CO2. The H9c2 cells were cultured in […] flasks, and cells (1×10^6 cells/mL) that had been passaged, from two up to five times were used for experiments. For live cell imaging and MTS assay, the H9c2 cells (1×10^5 cells/mL) were cultured overnight in either ibidi μ-Slide 8 wells in a final volume of 250 μL or 96-well microtiter plate in a final volume of 200 μL in absence of Ir-based molecular probes.
The H9c2 cells were incubated with 20 μM of Ir-based molecular probes for 30 minutes in FBS-free media (300 μL) at 37° C. and 5% CO2. These cells were washed twice with phosphate buffered saline (PBS) and once with FBS-free media, and then co-stained with either ER-Tracker™ Red (BODIPY® TR Glibenclamide), LysoTracker® Red DND-99, MitoTracker® Red CMXRos (1H,5H,11H,15H-Xantheno[2,3,4-ij:5,6,7-i′j′]diquinolizin-18-ium, 9-[4-(chloromethyl)phenyl]-2,3,6,7,12,13,16,17-octahydro-, chloride), β-BODIPY® FL C5-HPC (2-(4,4-Difluoro-5,7-Dimethyl-4-Bora-3a,4a-Diaza-s-Indacene-3-Pentanoyl)-1-Hexadecanoyl-sn-Glycero-3-Phosphocholine) or BODIPY® 500/510 C1, C12 (4,4-Difluoro-5-Methyl-4-Bora-3a,4a-Diaza-s-Indacene-3-Dodecanoic Acid), which were obtained from Life Technologies Australia Pty Ltd, Australia. Cell biology analysis was carried out with a minimum of two experimental groups. Imaging analysis was performed using a Nikon A1+ confocal microscope equipped with 403 nm, 488 nm, 561 nm and 640 nm solid-state lasers (Nikon, Japan) and OKOLab Microscope Incubator (Okolab USA Inc., USA). The final preparation of the images was conducted with Adobe Photoshop CC (Adobe Systems Inc., USA).
The H9c2 cells were incubated with 20 μM of Ir-based molecular probes for 30 minutes in FBS-free media (300 μL) at 37° C. and 5% CO2. These cells then were washed with phosphate buffered saline (PBS) and imaged using Zeiss LSM710 META NLO inverted microscope supplemented with a two-photon Mai-Tai®, tunable Ti:Sapphire femtosecond pulse laser (710-920 nm, Spectra-Physics). Fluorescence of Ir-based molecular probes was detected using the following settings: two-photon excitation wavelength 830 nm, beam splitter MBS 690+, emission interval 520-650 nm. The H9c2 cells were exposed to two-photon illumination between 810-840 nm. A continuum of lambda stack images was captured across the emission spectrum 416-728 nm. The images were acquired using a Plan-APOCHROMAT 63X/NA1.4 oil immersion objective. The final preparation of the images was conducted with Adobe Photoshop CC (Adobe Systems Inc., USA).

[3] = Photophysical measurements (absorption, emission, lifetime, quantum yield) in diluted solutions; type: physicochemical; details: for Emission λem / τaer, excited state lifetime (relative weight in parentheses) / τdeaer, excited state lifetime (relative weight in parentheses): 298K; for Φaer, quantum yield / Φdeaer, quantum yield: versus Ru(bpy)3^2+ in water (φr = 0.028); for τdeaer, excited state lifetime (relative weight in parentheses) / Φdeaer, quantum yield: deaerated; for knr: calculated as [(1 − φ)/τ] from deaerated solutions; for kr: calculated as [φ/τ] from deaerated solutions; for Φ, quantum yield: versus Ru(bpy)3^2+ in water; for red-shift of emission from ethyl laurate to dichloromethane: ethyl laurate vs dichloromethane
Excerpt: A summary of the photophysical data for the complexes as diluted solutions (10^−5 M) in dichloromethane, water, PBS, lysosomal fluid solution, and ethyl laurate is reported in Table 1. All the listed aqueous media also contain 0.1% DMSO to favour the solubilisation of the complexes. The various solvents have been chosen to identify potential modulations on the photophysical behaviour of the iridium complexes in diverse cellular environments such as cytoplasm, endosome/lysosomes acidic organelles, or lipid-rich compartments like membranes, endoplasmic reticulum, and lipid droplets. In general, the photophysical characteristics were measured in aerated solutions to take into account the presence of oxygen in live cells. On the other hand, dichloromethane solutions were compared as aerated and degassed to confirm oxygen sensitivity and triplet character of the excited states of the complexes.
Absorption spectra were recorded at room temperature using a Cary 4000 UV/Vis spectrometer. Uncorrected steady state emission and excitation spectra were recorded on an Edinburgh FLSP980-S2S2-stm spectrometer equipped with: i) a temperature-monitored cuvette holder; ii) 450 W Xenon arc lamp; iii) double excitation and emission monochromators; iv) a Peltier cooled Hamamatsu R928P photomultiplier tube (spectral range 200-870 nm). Emission and excitation spectra were corrected for source intensity (lamp and grating) and emission spectral response (detector and grating) by a calibration curve supplied with the instrument. According to the approach described by Demas and Crosby, luminescence quantum yields (Φem) were measured in optically dilute solutions (O.D.<0.1 at excitation wavelength) obtained from absorption spectra on a wavelength scale [nm] and compared to the reference emitter by the following equation: […]
where A is the absorbance at the excitation wavelength (λ), I is the intensity of the excitation light at the excitation wavelength (λ), n is the refractive index of the solvent, D is the integrated intensity of the luminescence and Φ is the quantum yield. The subscripts r and x refer to the reference and the sample, respectively. The quantum yield determinations were performed at identical excitation wavelength for the sample and the reference, therefore cancelling the I(λr)/I(λx) term in the equation. The quantum yields of complexes were measured against Rubipy in water (Φr=0.028). Emission lifetimes (z) were determined with the time correlated single photon counting technique (TCSPC) with the same Edinburgh FLSP980-S2S2-stm spectrometer using either a pulsed picosecond LED (EPLED/EPL 377 nm, FHWM<800 ps) or a microsecond flashlamp. The goodness of fit was assessed by minimising the reduced χ^2 function and by visual inspection of the weighted residuals. The solvents used for the preparation of the solutions for the photophysical investigations were of LR grade and the water was deionised. Degassing of the dichlorometane solutions was performed using the freeze-pump-thaw method. Experimental uncertainties are estimated to be ±8% for lifetime determinations, ±20% for quantum yields, ±2 nm and ±5 nm for absorption and emission peaks, respectively.

Structure (SMILES): C[n+]1nc2[n](n1)[Ir]13([c]4ccccc4-c4cccc[n+]41)([c]1ccccc1-c1cccc[n+]13)[n+]1cc(-c3ccc(C#N)cc3)ccc1-2 [[Ir(ppy)2(MeTzPyPhCN)]^+]
- logD [1]: 1.87 ± 0.08
- cellular localisation (co-staining) [2]: staining pattern consistent with mitochondrial localisation
- emission profile from cells [2]: blue-shifted and almost superimposable bands between these cationic complexes and their neutral analogues
- Absorption λabs [nm] (10^4ε [M^−1cm^−1]) ([3]; DCM, 10^−5 M): 267 (3.39) nm (10^4ε [M^−1cm^−1]) and 290 (3.14) nm (10^4ε [M^−1cm^−1]) and 378 (0.40) nm (10^4ε [M^−1cm^−1])
- Emission λem ([3]; DCM, 10^−5 M): 600 nm
- τaer, excited state lifetime (relative weight in parentheses) ([3]; DCM, aerated): 184 ns
- Φaer, quantum yield ([3]; DCM, aerated): 0.057
- τdeaer, excited state lifetime (relative weight in parentheses) ([3]; DCM): 434 ns
- Φdeaer, quantum yield ([3]; DCM): 0.093
- knr ([3]; DCM): 2.090 10^6s^−1
- kr ([3]; DCM): 2.143 10^5s^−1
- Emission λem ([3]; H2O with 0.1% DMSO, aerated): 605 nm
- Φ, quantum yield ([3]; H2O with 0.1% DMSO, aerated): 0.005
- red-shift of emission on passing from a PBS to a lysosomal fluid solution ([3]; PBS vs lysosomal fluid solution): 22 nm
- red-shift of emission from ethyl laurate to dichloromethane [3]: almost no shift is observed

Structure (SMILES): C[n+]1nc2[n](n1)[Ir]13([c]4ccccc4-c4cccc[n+]41)([c]1ccccc1-c1cccc[n+]13)[n+]1c-2ccc2ccccc21 [[Ir(ppy)2(MeTzQn)]^+]
- logD [1]: 1.68 ± 0.05
- cellular localisation (co-staining) [2]: preferential localisation in the endoplasmic reticulum and fatty acids and phospholipids
- emission profile from cells [2]: blue-shifted and almost superimposable bands between these cationic complexes and their neutral analogues
- Emission λem ([3]; DCM, 10^−5 M): 635 nm
- τaer, excited state lifetime (relative weight in parentheses) ([3]; DCM, aerated): 218 ns
- Φaer, quantum yield ([3]; DCM, aerated): 0.028
- τdeaer, excited state lifetime (relative weight in parentheses) ([3]; DCM): 546 ns
- Φdeaer, quantum yield ([3]; DCM): 0.043
- knr ([3]; DCM): 1.753 10^6s^−1
- kr ([3]; DCM): 0.788 10^5s^−1
- Absorption λabs [nm] (10^4ε [M^−1cm^−1]) ([3]; H2O with 0.1% DMSO, 10^−5 M): 251 (8.30) nm (10^4ε [M^−1cm^−1]) and 307 (2.52) nm (10^4ε [M^−1cm^−1]) and 364 (1.09) nm (10^4ε [M^−1cm^−1])
- Emission λem ([3]; H2O with 0.1% DMSO, aerated): 630 nm
- Φ, quantum yield ([3]; H2O with 0.1% DMSO, aerated): 0.004

Structure (SMILES): C[n+]1nc2[n](n1)[Ir]13([c]4ccccc4-c4cccc[n+]41)([c]1ccccc1-c1cccc[n+]13)[n+]1ccc3ccccc3c1-2 [[Ir(ppy)2(MeTziQn)]^+]
- logD [1]: 1.49 ± 0.06
- cellular localisation (co-staining) [2]: preferential localisation in the endoplasmic reticulum and fatty acids and phospholipids
- emission profile from cells [2]: red-shifted consistently with the photophysical data
- Absorption λabs [nm] (10^4ε [M^−1cm^−1]) ([3]; DCM, 10^−5 M): 253 (6.96) nm (10^4ε [M^−1cm^−1]) and 303 (2.45) nm (10^4ε [M^−1cm^−1]) and 371 (1.24) nm (10^4ε [M^−1cm^−1])
- Emission λem ([3]; DCM, 10^−5 M): 640 nm
- τaer, excited state lifetime (relative weight in parentheses) ([3]; DCM, aerated): 208 ns
- Φaer, quantum yield ([3]; DCM, aerated): 0.049
- τdeaer, excited state lifetime (relative weight in parentheses) ([3]; DCM): 485 ns
- Φdeaer, quantum yield ([3]; DCM): 0.063
- knr ([3]; DCM): 1.932 10^6s^−1
- kr ([3]; DCM): 1.299 10^5s^−1
- Absorption λabs [nm] (10^4ε [M^−1cm^−1]) ([3]; H2O with 0.1% DMSO, 10^−5 M): 251 (6.64) nm (10^4ε [M^−1cm^−1]) and 291 (2.60) nm (10^4ε [M^−1cm^−1]) and 355 (1.36) nm (10^4ε [M^−1cm^−1])
- Emission λem ([3]; H2O with 0.1% DMSO, aerated): 660 nm
- Φ, quantum yield ([3]; H2O with 0.1% DMSO, aerated): 0.004
- red-shift of emission from ethyl laurate to dichloromethane [3]: almost no shift is observed
